Assay [1] has as its system Puccinia recondita f. Sp. Tritici. Nature of the assay: Puccinia recondita f. sp. tritici / wheat / leaf disc preventative (brown rust). Type of assay: in vivo. To be noted: foliar, 200 ppm in the applied formulation, wheat leaf segments, preventative, assessed 7 to 9 days after application, read-out: disease control compared to untreated control leaf disks. In short, it runs like this:
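Wheat cv. Kanzler leaf segments on agar sprayed with formulated compound in water, inoculated with rust spores 1 day later. Incubated at 19° C, 75% rh, 12 h light/12 h dark; percent disease control versus untreated scored 7 to 9 days after application; tested at 200 ppm.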

For the next assay, the system named is Phakopsora pachyrhizi. Nature of the assay: Phakopsora pachyrhizi / soybean / leaf disc preventative (Asian soybean rust). In kind it is in vivo. To be noted: foliar, 200 ppm in the applied formulation, soybean leaf disks, assessed 12 to 14 days after application, read-out: disease control compared to untreated control leaf disks. As for the experimental part: Leaf disks or leaf segments of various plant species are cut from plants grown in a greenhouse. The cut leaf disks or segments are placed in multiwell plates (24-well format) onto water agar. The leaf disks are sprayed with a test solution before (preventative) or after (curative) inoculation. Compounds to be tested are prepared as DMSO solutions (max. 10 mg/mL) which are diluted to the appropriate concentration with 0.025% Tween20 just before spraying. The inoculated leaf disks or segments are incubated under defined conditions (temperature, relative humidity, light, etc.) according to the respective test system. A single evaluation of disease level is carried out 3 to 14 days after inoculation, depending on the pathosystem. Percent disease control relative to the untreated check leaf disks or segments is then calculated.
Example 3: Fungicidal Activity Against Phakopsora pachyrhizi/Soybean/Leaf Disc Preventative (Asian Soybean Rust)
Soybean leaf disks are placed on water agar in multiwell plates (24-well format) and sprayed with the formulated test compound diluted in water. One day after application leaf discs are inoculated by spraying a spore suspension on the lower leaf surface. After an incubation period in a climate cabinet of 24-36 hours in darkness at 20° C. and 75% relative humidity leaf disc are kept at 20° C. with 12 hours light/day and 75% relative humidity. The activity of a compound is assessed as percent disease control compared to untreated when an appropriate level of disease damage appears in untreated check leaf disks (12 to 14 days after application).
The following compounds at 200 ppm in the applied formulation give at least 80% disease control in this test when compared to untreated control leaf disks under the same conditions, which show extensive disease development.

In assay [2] the test system is Glomerella lacenarium (Colletotrichum lacenarium). Nature of the assay: Glomerella lacenarium (Colletotrichum lacenarium) liquid culture / cucumber / preventative (anthracnose). In kind it is cell-based. To be noted: 20 ppm in the applied formulation, liquid culture in PDB, 24° C., 3 to 4 days after application, read-out: disease control (inhibition of growth, photometric) compared to untreated control. Summed up:
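Cryostored conidia in potato dextrose broth added to DMSO compound solution in microtiter plates, incubated at 24° C. Growth inhibition read photometrically 3 to 4 days after application, as percent control versus untreated check; compounds tested at 20 ppm.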

The structures appear in SMILES notation.

Consider 23 compounds from patent publication US20180370927A1, “MICROBIOCIDAL OXADIAZOLE DERIVATIVES” (SYNGENTA PARTICIPATIONS AG, priority 2015, published 2018).

With `O=C(NCc1c(F)cc(-c2noc(C(F)(F)F)n2)cc1F)C(=O)c1ccccc1` [Compound 1.68, N-[[2,6-difluoro-4-[5-(trifluoromethyl)-1,2,4-oxadiazol-3-yl]phenyl]methyl]-2-oxo-2-phenyl-acetamide], the pest or weed control at 200 ppm (in assay [1]; in the assay on Phakopsora pachyrhizi) was no less than 80% in each case. The inhibition at 20 ppm in assay [2] was no less than 80%.

Take `O=C(NCc1ccc(-c2noc(C(F)(F)F)n2)cc1Cl)C(=O)c1ccccc1` [Compound 1.59, N-[[2-chloro-4-[5-(trifluoromethyl)-1,2,4-oxadiazol-3-yl]phenyl]methyl]-2-oxo-2-phenyl-acetamide]: the pest or weed control at 200 ppm (in assay [1]; with Phakopsora pachyrhizi) was no less than 80% each time. Moreover, the inhibition at 20 ppm in assay [2] is no less than 80%.

As for `O=C(NCc1ccc(-c2noc(C(F)(F)F)n2)c(F)c1F)C(=O)c1cccs1` [Compound 1.48, N-[[2,3-difluoro-4-[5-(trifluoromethyl)-1,2,4-oxadiazol-3-yl]phenyl]methyl]-2-oxo-2-(2-thienyl)acetamide], the pest or weed control at 200 ppm (in assay [1]; in the assay on Phakopsora pachyrhizi) was no less than 80% throughout. The inhibition at 20 ppm in assay [2] is no less than 80%.

On to `O=C(NCc1ccc(-c2noc(C(F)(F)F)n2)c(F)c1F)C(=O)c1ccccc1` [Compound 1.46, N-[[2,3-difluoro-4-[5-(trifluoromethyl)-1,2,4-oxadiazol-3-yl]phenyl]methyl]-2-oxo-2-phenyl-acetamide], for which the pest or weed control at 200 ppm (in assay [1]; with Phakopsora pachyrhizi) was no less than 80% throughout. Also, the inhibition at 20 ppm in assay [2] was no less than 80%.

With `Cc1cc(-c2noc(C(F)(F)F)n2)ccc1CNC(=O)C(=O)C(C)(C)C` [Compound 1.67, 3,3-dimethyl-N-[[2-methyl-4-[5-(trifluoromethyl)-1,2,4-oxadiazol-3-yl]phenyl]methyl]-2-oxo-butanamide], the pest or weed control at 200 ppm in the assay on Phakopsora pachyrhizi is no less than 80%. The inhibition at 20 ppm in assay [2] is no less than 80%.

Regarding `NC(=O)C(=O)NCCc1ccc(-c2noc(C(F)(F)F)n2)cc1` [Compound 4.85, N′-[2-[4-[5-(trifluoromethyl)-1,2,4-oxadiazol-3-yl]phenyl]ethyl] oxamide], the pest or weed control at 200 ppm with Phakopsora pachyrhizi is no less than 80%. Further, the inhibition at 20 ppm in assay [2] is no less than 80%.

`O=C(NCc1ccc(-c2noc(C(F)(F)F)n2)c(F)c1F)C(=O)c1ccco1` [Compound 1.81, N-[[2,3-difluoro-4-[5-(trifluoromethyl)-1,2,4-oxadiazol-3-yl]phenyl]methyl]-2-(2-furyl)-2-oxo-acetamide]: in the assay with Phakopsora pachyrhizi, the pest or weed control at 200 ppm is no less than 80%. The inhibition at 20 ppm in assay [2] is no less than 80%.

As for `CC(C)CC(=O)C(=O)NCc1ccc(-c2noc(C(F)(F)F)n2)cc1Cl` [Compound 1.61, N-[[2-chloro-4-[5-(trifluoromethyl)-1,2,4-oxadiazol-3-yl]phenyl]methyl]-4-methyl-2-oxo-pentanamide], the pest or weed control at 200 ppm (in assay [1]; with Phakopsora pachyrhizi) was no less than 80% throughout.

Take `CON(Cc1ccc(-c2noc(C(F)(F)F)n2)cc1F)C(=O)C(=O)c1cccs1` [Compound 1.56, N-[[2-fluoro-4-[5-(trifluoromethyl)-1,2,4-oxadiazol-3-yl]phenyl]methyl]-N-methoxy-2-oxo-2-(2-thienyl)acetamide]: the pest or weed control at 200 ppm (in assay [1]; in the assay with Phakopsora pachyrhizi) was no less than 80% throughout. Further, the inhibition at 20 ppm in assay [2] was no less than 80%.

For `Cc1cc(-c2noc(C(F)(F)F)n2)ccc1CNC(=O)C(=O)c1cccs1` [Compound 1.66, N-[[2-methyl-4-[5-(trifluoromethyl)-1,2,4-oxadiazol-3-yl]phenyl]methyl]-2-oxo-2-(2-thienyl)acetamide], the pest or weed control at 200 ppm (in assay [1]; with Phakopsora pachyrhizi) was no less than 80% throughout.

`NC(=O)C(=O)NCc1ccc(-c2noc(C(F)(F)F)n2)c(F)c1F` [Compound 4.84, N′-[[2,3-difluoro-4-[5-(trifluoromethyl)-1,2,4-oxadiazol-3-yl]phenyl]methyl] oxamide]: the pest or weed control at 200 ppm in the assay with Phakopsora pachyrhizi was no less than 80%. Moreover, the inhibition at 20 ppm in assay [2] is no less than 80%.

In the case of `CON(Cc1ccc(-c2noc(C(F)(F)F)n2)cc1F)C(=O)C(=O)c1ccccc1` [Compound 1.54, N-[[2-fluoro-4-[5-(trifluoromethyl)-1,2,4-oxadiazol-3-yl]phenyl]methyl]-N-methoxy-2-oxo-2-phenyl-acetamide], the pest or weed control at 200 ppm (in assay [1]; with Phakopsora pachyrhizi) was no less than 80% each time. Also, in assay [2], the inhibition at 20 ppm is no less than 80%.

Regarding `O=C(NCC1COCCO1)C(=O)Nc1ccc(-c2noc(C(F)(F)F)n2)cc1` (centres unmarked) [Compound 4.19, N-(1,4-dioxan-2-ylmethyl)-N′-[4-[5-(trifluoromethyl)-1,2,4-oxadiazol-3-yl]phenyl]oxamide], the pest or weed control at 200 ppm (in assay [1]; in the assay with Phakopsora pachyrhizi) was no less than 80% throughout.

`CCCC(=O)C(=O)N(Cc1ccc(-c2noc(C(F)(F)F)n2)cc1)CC1CC1` [Compound 1.6, N-(cyclopropyl-methyl)-2-oxo-N-[[4-[5-(trifluoromethyl)-1,2,4-oxadiazol-3-yl]phenyl]methyl]pentanamide]: in the assay with Phakopsora pachyrhizi, the pest or weed control at 200 ppm was no less than 80%. In assay [2], the inhibition at 20 ppm was no less than 80%.

In the case of `CON(Cc1ccc(-c2noc(C(F)(F)F)n2)cc1)C(=O)C(=O)c1cccs1` [Compound 1.73, N-methoxy-2-oxo-2-(2-thienyl)-N-[[4-[5-(trifluoromethyl)-1,2,4-oxadiazol-3-yl]phenyl]methyl]acetamide], the pest or weed control at 200 ppm (in assay [1]; in the assay with Phakopsora pachyrhizi) was no less than 80% each time. For the same compound, in assay [2], the inhibition at 20 ppm was no less than 80%.

Turning to `CON(Cc1ccc(-c2noc(C(F)(F)F)n2)cc1F)C(=O)C(=O)C(C)(C)C` [Compound 1.57, N-[[2-fluoro-4-[5-(trifluoromethyl)-1,2,4-oxadiazol-3-yl]phenyl]methyl]-N-methoxy-3,3-dimethyl-2-oxo-butanamide], the pest or weed control at 200 ppm (in assay [1]; in the assay on Phakopsora pachyrhizi) was no less than 80% each time. For the same compound, the inhibition at 20 ppm in assay [2] is no less than 80%.

As to `CCC(=O)C(=O)N(C)c1ccc(-c2noc(C(F)(F)F)n2)cc1` [Compound 1.34, N-methyl-2-oxo-[4-[5-(trifluoromethyl)-1,2,4-oxadiazol-3-yl]phenyl]butanamide], the pest or weed control at 200 ppm in the assay on Phakopsora pachyrhizi was no less than 80%.

For `CCCCON(Cc1ccc(-c2noc(C(F)(F)F)n2)cc1)C(=O)C(N)=O` [Compound 4.87, N′-butoxy-N′-[[4-[5-(trifluoromethyl)-1,2,4-oxadiazol-3-yl]phenyl]methyl] oxamide], the pest or weed control at 200 ppm (in assay [1]; in the assay on Phakopsora pachyrhizi) was no less than 80% throughout. Further, the inhibition at 20 ppm in assay [2] is no less than 80%.

For the compound `O=C(NCc1ccc(-c2noc(C(F)(F)F)n2)c(F)c1)C(=O)c1ccccc1` [Compound 1.42, N-[[3-fluoro-4-[5-(trifluoromethyl)-1,2,4-oxadiazol-3-yl]phenyl]methyl]-2-oxo-2-phenyl-acetamide], the pest or weed control at 200 ppm (in assay [1]; in the assay with Phakopsora pachyrhizi) was no less than 80% each time. Further, in assay [2], the inhibition at 20 ppm is no less than 80%.

For the compound `O=C(NCc1ccc(-c2noc(C(F)(F)F)n2)cc1Cl)C(=O)c1cccs1` [Compound 1.62, N-[[2-chloro-4-[5-(trifluoromethyl)-1,2,4-oxadiazol-3-yl]phenyl]methyl]-2-oxo-2-(2-thienyl)acetamide], the pest or weed control at 200 ppm (in assay [1]; with Phakopsora pachyrhizi) was no less than 80% in each case. In assay [2], the inhibition at 20 ppm was no less than 80%.

As for `Cc1cc(-c2noc(C(F)(F)F)n2)ccc1CNC(=O)C(=O)c1ccccc1` [Compound 1.65, N-[[2-methyl-4-[5-(trifluoromethyl)-1,2,4-oxadiazol-3-yl]phenyl]methyl]-2-oxo-2-phenyl-acetamide], the pest or weed control at 200 ppm (in assay [1]; with Phakopsora pachyrhizi) was no less than 80% in each case.

Take `CCCCON(Cc1ccc(-c2noc(C(F)(F)F)n2)cc1)C(=O)C(=O)CC` [Compound 1.30, N-butoxy-2-oxo-N-[[4-[5-(trifluoromethyl)-1,2,4-oxadiazol-3-yl]phenyl]methyl]butanamide]: in the assay with Phakopsora pachyrhizi, the pest or weed control at 200 ppm is no less than 80%. Besides, the inhibition at 20 ppm in assay [2] was no less than 80%.

`Cc1cc(-c2noc(C(F)(F)F)n2)ccc1CNC(=O)C(=O)c1ccco1` [Compound 1.86]: the pest or weed control at 200 ppm (in assay [1]; with Phakopsora pachyrhizi) was no less than 80% each time.
